Experimental data as given in PMC8264055, “Pharmacokinetics of Colistin in the Gastrointestinal Tract of Poultry Following Dosing via Drinking Water and Its Bactericidal Impact on Enteric Escherichia coli” (Frontiers in Veterinary Science, 2021).
Counter-ions that a name gives are not always drawn. Positions of bridges follow the written chain, without caps; N, C: chain ends. Non-standard residues stand in square brackets, D forms with d. Residues, ends and D or L forms follow the SMILES beside them. *: point of attachment. X1 = CC[C@H](C)CCCCC(=O)*; Dab = NCC[C@H](N)C(=O)O

Key:
[1] = Colistin content in luminal intestinal content (LIC) by UHPLC-MS/MS, non-compartmental PK analysis; type: in vivo, broiler chicken (Gallus gallus domesticus)
From the text: (§1) This study was approved by the Royal Veterinary College ethics and welfare committee. One hundred Ross 308 broiler chicken (Gallus gallus domesticus) were obtained from an approved supplier and housed in the animal welfare barn (AWB) at the Royal Veterinary College. Poultry were group-housed and fed baby chick crumbs (Smallholder Range, Norfolk, UK), a feed free of coccidiostats and designed to feed from hatching to 6–8 weeks, and given free access to water for the duration of the study. At 13 days, six birds were separated and maintained as a control group for the course of the study with the remaining 94 birds constituting the study group. European Pharmacopeia-compliant Meiji Seika Pharma's colistin sulfate (ColiMeiji®, hereafter “colistin”) consisting of a 78.53% (“as is”) mixture of colistin A (polymyxin E1) and colistin B (polymyxin E2), was per certificate of analysis (CoA) supplied by Wyjolab (Chaillac, France). Potency of colistin (as reported by CoA) was 23,558 IU/mg, and dosing was calculated as equivalent colistin base. Colistin was administered via drinking water to the study group at a dose equal to 75,000 IU/kg/day over a period of 3 days. The volume of colistin stock solution (2,000,000 IU/ml) diluted per 3-L drinking bell (Poultry Drinker 3L, Farm & Country Supplies, Alton, Hampshire, UK) was based on the average bird weight and water consumption measured on the day prior to dosing. Actual dose received every 24 h was back calculated based on measured water consumption for that period and bird weights. Birds were housed in a 25-m^2 floor pen with access to 5 × 3-L drinking bells, refreshed every 24 h. Average relative humidity was 44.5% (range: 29–63%) and average temperature 24°C (range: 20–28°C). Birds were provided a 14-h photoperiod aligned with onset of dosing (0 h) at 07:00.
(§2) The study group was sampled at predetermined times pre-dose (0 h), during oral dosing (at 12, 36, and 54 h), at cessation of dosing (72 h), and after dosing (73, 74, 76, 80, 84, 96, 120, and 144 h from the onset of dosing). At each time point, eight birds were sacrificed, except at 12, 36, and 54 h where only six birds were sacrificed. After neck dislocation, cloacal swabs were immediately taken, and the whole small intestine was excised after placing three ligatures (one around the duodenum, one on the ileum just proximally to the cecal attachment, and one distally to include the large intestine). All samples were stored at 4°C for no more than 48 h prior to further analysis. All birds in the control group underwent cloacal sampling at matching time points.
Each intestinal specimen was individually processed with a new set of examination gloves and blades to avoid carry over or contamination. The ceca were separated from the small intestine by cutting off the ileum proximally to the ligature. The luminal intestinal content (LIC) was then evacuated through peristaltic massage of the small intestine in a proximal-to-distal direction. Extracted LIC was mixed to ensure a homogenous sample, and 200 mg (±2 mg) aliquots were separated for further testing. Parietal intestinal content (PIC) was collected following LIC; the intestine was inflated with air, straightened, and longitudinally incised with a scalpel blade no. 11. The opened intestine was flattened, and the blade was used to scrape the parietal lining of the intestine. Luminal cecal content (LCC) was extracted in a similar fashion following incision at one end. Aliquots for colistin quantification were stored at −80°C or at 4°C for bacterial enumeration and isolation.
Total colistin content was quantified using a novel ultra-high-performance liquid chromatography-tandem mass spectrometry (UHPLC-MS/MS) method. […]

enteric E. coli = test: Enumeration of E. coli in luminal intestinal content on UriSelect 4 agar during and after colistin treatment; type: in vivo, Escherichia coli
From the text: as §1
as §2, with “All birds in the control group underwent cloacal sampling at matching time points.” left out
UriSelect 4™ agar (Bio-Rad, Watford, UK) plates were used for enumeration and isolation of E. coli from LIC. […] Bacterial counts in original LIC were back calculated based on the total number of colonies countable on UriSelect 4™ agar. […]

[2] = LIC, nominal dose 75,000 IU/kg/day, NCA sparse option, 6 to 8 birds per time point
[3] = nominal dose 75,000 IU/kg/day via drinking water, from partial AUC, NCA sparse option
[4] = during dosing, 75,000 IU/kg/day via drinking water, n = 6, median baseline 3.6 × 10^6 CFU/g

CC[C@H](C)CCCCC(=O)N[C@@H](CCN)C(=O)N[C@H](C(=O)N[C@@H](CCN)C(=O)N[C@H]1CCNC(=O)[C@H]([C@@H](C)O)NC(=O)[C@H](CCN)NC(=O)[C@H](CCN)NC(=O)[C@H](CC(C)C)NC(=O)[C@@H](CC(C)C)NC(=O)[C@H](CCN)NC1=O)[C@@H](C)O [colistin, colistin sulfate] (X1-[Dab]T[Dab][Dab][Dab][dL]L[Dab][Dab]T; lactam 4-C)
Partial AUC, AUC0-24h (first day) [1, 2]: 54.1 mg·h/kg
Partial AUC, AUC24-48h (second day) [1, 2]: 75.5 mg·h/kg
Partial AUC, AUC48-72h (third day) [1, 2]: 112.6 mg·h/kg
tissue level at time at 72 h ([1]; Ross 308 broiler, luminal intestinal content (LIC), po, 75000 IU/kg/day, 75,000 IU/kg/day via drinking water for 72 h, 72 h, mean of n = 8 birds, read-out: mean colistin content in LIC at cessation of dosing): 4510 ng/g
mean colistin content in LIC, peak ([1]; broiler chickens, colistin sulfate 75,000 IU/kg/day via drinking water for 72 h, 54 h from onset of dosing, mean of n = 6 birds, UHPLC-MS/MS, LOQ 1.1 mg/kg): 5.09 mg/kg
Average colistin luminal intestinal content, 0-48 h (first and second day) [1, 3]: 2.70 mg/kg digesta
Average colistin luminal intestinal content, 24-48 h (second day) [1, 3]: 3.15 mg/kg digesta
median E. coli count in LIC at 96, 120 and 144 h (enteric E. coli; after dosing, to end of the experiment, n = 8 per time point): ~5 × 10^5
median E. coli count in LIC at 36 h (enteric E. coli; [4]): 3.9 × 10^3 CFU/g
median E. coli count in LIC at 54 h (enteric E. coli; [4]): 1.56 × 10^4 CFU/g
log reduction in the number of E. coli (enteric E. coli; up to 36 h post-onset of colistin administration): > 3 log
